From PMC8744835, “Sterically Hindered Quaternary Phosphonium Salts (QPSs): Antimicrobial Activity and Hemolytic and Cytotoxic Properties” (International Journal of Molecular Sciences, 2021)

Key:
[1] = tested on: Escherichia coli ATCC 25922; experiment: Antimicrobial activity, serial dilution technique in Mueller–Hinton Broth 2; type: cell-based; conditions: average of three ± SD, - means non-active
[2] = tested on: Escherichia coli ATCC 25922; experiment: as above; type: cell-based; conditions: average of three ± SD, - means non-active; for MIC: Escherichia coli, ATCC25922, Ec, read-out: Minimum Inhibitory Concentration (MIC), Ec
Summary of the method: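 Compounds were serially diluted in Mueller–Hinton Broth 2 and inoculated at 3.0 × 10^5 cfu/mL. Cultures were then incubated at 37 °C with growth recorded daily for 5 days. The MIC was taken as the minimum concentration inhibiting growth, from three experiments.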

[3] = tested on: Bacillus cereus ATCC 10702 NCTC 8035; experiment: as above; type: cell-based; conditions: average of three ± SD, - means non-active
Summary of the method: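 Antibacterial activity against Bacillus cereus ATCC 10702 NCTC 8035 was measured by serial dilution in Mueller–Hinton Broth 2 at a bacterial load of 3.0 × 10^5 cfu/mL. Cultures were kept at 37 °C and growth was read every 24 h for 5 days. The experiment was done three times, and MIC and bactericidal concentrations were determined.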

[4] = tested on: Enterococcus faecalis ATCC 2921; experiment: as above; type: cell-based; conditions: Ef; average of three ± SD; - means non-active
Summary of the method: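 Antibacterial activity against Enterococcus faecalis ATCC 2921 was assessed by serial dilution in Mueller–Hinton Broth 2 with a bacterial load of 3.0 × 10^5 cfu/mL. Cultures were incubated at 37 °C, with growth recorded every 24 h for 5 days, and the experiment was performed three times.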

[5] = tested on: Staphylococcus aureus ATCC 6538P FDA 209P; experiment: as above; type: cell-based; conditions: average of three ± SD, - means non-active
Summary of the method: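 Antimicrobial activity against Staphylococcus aureus ATCC 6538P FDA 209P was measured by serial dilution in Mueller–Hinton Broth 2 at a bacterial load of 3.0 × 10^5 cfu/mL. Cultures were incubated at 37 °C, growth was recorded every 24 h for 5 days, and the experiment was done three times.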

[6] = tested on: Pseudomonas aeruginosa ATCC 9027; experiment: as above; type: cell-based; conditions: average of three ± SD, - means non-active; for MBC / MIC: Pseudomonas aeruginosa, ATCC9027, Pa; for MBC: read-out: Minimum Bactericidal and Fungicidal Concentration (MBC, MFC), Pa; for MIC: read-out: Minimum Inhibitory Concentration (MIC), Pa
[7] = tested on: methicillin-resistant S. aureus MRSA-2; experiment: as above; type: cell-based, Staphylococcus aureus; conditions: - means non-active; for Minimum Inhibitory Concentration (MIC), MRSA-2: MRSA-2 (resistant to beta-lactams)
Summary of the method: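 Antimicrobial activity against methicillin-susceptible Staphylococcus aureus MRSA-2, a beta-lactam-resistant clinical isolate from a sinusitis patient at the Republican Clinical Hospital (Kazan), was assessed by serial dilution in Mueller–Hinton Broth 2. The inoculum was 3.0 × 10^5 cfu/mL. Cultures were incubated at 37 °C and read every 24 h for 5 days, in three repeat experiments.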

[8] = tested on: methicillin-resistant S. aureus MRSA-1; experiment: as above; type: cell-based, Staphylococcus aureus; conditions: - means non-active; for Minimum Inhibitory Concentration (MIC), MRSA-1: MRSA-1 (resistant to fluoroquinolones and beta-lactams)
Summary of the method: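 Antimicrobial activity against methicillin-susceptible Staphylococcus aureus MRSA-1, a hospital isolate from a chronic tonsillitis patient that is resistant to fluoroquinolones and beta-lactams, was determined by serial dilution in Mueller–Hinton Broth 2. The bacterial load was 3.0 × 10^5 cfu/mL, incubation was at 37 °C, and growth was recorded every 24 h for 5 days.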

[9] = tested on: Candida albicans ATCC 10231; experiment: Fungicidal activity, serial dilution technique; type: cell-based; conditions: average of three ± SD, - means non-active
Summary of the method: (§1)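 Serial dilution in Mueller–Hinton Broth 2 with an inoculum of 3.0 × 10^5 cfu/mL, 37 °C, read every 24 h for 5 days; three repeats. MIC is the lowest concentration inhibiting visible growth of the test organism.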

[10] = tested on: Trichophyton mentagrophytes var. gypseum 1773; experiment: Fungicidal activity, serial dilution technique; type: cell-based; conditions: Tm, average of three ± SD, - means non-active; for MBC / MIC: Trichophyton mentagrophytes; for MBC: read-out: Minimum Bactericidal and Fungicidal Concentration (MBC, MFC), Tm; for MIC: read-out: Minimum Inhibitory Concentration (MIC), Tm
Summary of the method: as §1

SMILES | MIC [2] [µg/mL] | Minimum Inhibitory Concentration (MIC), Bc [3] [µg/mL] | Minimum Bactericidal and Fungicidal Concentration (MBC, MFC), Ef [4] [µg/mL] | Minimum Inhibitory Concentration (MIC), Ef [4] [µg/mL] | Minimum Inhibitory Concentration (MIC), Sa [5] [µg/mL] | MBC [6] [µg/mL] | MIC [6] [µg/mL] | Minimum Inhibitory Concentration (MIC), MRSA-2 [7] [µg/mL] | Minimum Bactericidal and Fungicidal Concentration (MBC, MFC), MRSA-2 [7] [µg/mL] | Minimum Inhibitory Concentration (MIC), MRSA-1 [8] [µg/mL] | Minimum Bactericidal and Fungicidal Concentration (MBC, MFC), MRSA-1 ([8]; MRSA-1) [µg/mL] | MBC [10] [µg/mL] | MIC [10] [µg/mL] | Minimum Bactericidal and Fungicidal Concentration (MBC, MFC), Ec [1] [µg/mL] | Minimum Bactericidal and Fungicidal Concentration (MBC, MFC), Bc [3] [µg/mL] | Minimum Bactericidal and Fungicidal Concentration (MBC, MFC), Sa [5] [µg/mL] | Minimum Bactericidal and Fungicidal Concentration (MBC, MFC), Ca [9] [µg/mL] | Minimum Inhibitory Concentration (MIC), Ca [9] [µg/mL] | further results
CCCCCCCCCCCCCCCCC[P+](C(C)(C)C)(C(C)(C)C)C(C)(C)C [Compound 17a] | 15.6 ± 1.2 | 0.9 ± 0.07 | 1.9 ± 0.1 | 1.9 ± 0.1 | 0.2 ± 0.01 | 7.8 ± 0.7 | 7.8 ± 0.5 | 0.9 ± 0.07 | 0.9 ± 0.06 | 0.9 ± 0.06 | 0.9 ± 0.07 | 125 ± 10 | 125 ± 10 | – | – | – | – | – | MBC ([1]; Escherichia coli, ATCC25922, Ec, read-out: Minimum Bactericidal and Fungicidal Concentration (MBC, MFC), Ec): 15.6 ± 1.3 µg/mL; MBC ([3]; Bacillus cereus, Bc, read-out: Minimum Bactericidal and Fungicidal Concentration (MBC, MFC), Bc): 15.6 ± 1.2 µg/mL; MBC ([5]; Staphylococcus aureus, Sa, read-out: Minimum Bactericidal and Fungicidal Concentration (MBC, MFC), Sa): 0.5 ± 0.03 µg/mL; MBC ([9]; Candida albicans, ATCC10231, Ca, read-out: Minimum Bactericidal and Fungicidal Concentration (MBC, MFC), Ca): 3.9 ± 0.2 µg/mL; MIC ([9]; Candida albicans, ATCC10231, Ca, read-out: Minimum Inhibitory Concentration (MIC), Ca): 1.9 ± 0.1 µg/mL
CCCCCCCCCCCCCCCCCC[P+](C(C)(C)C)(C(C)(C)C)C(C)(C)C [Compound 18a] | 15.6 ± 1.3 | 7.8 ± 0.6 | 0.9 ± 0.07 | 0.9 ± 0.07 | 0.9 ± 0.08 | 62.5 ± 5.6 | 15.6 ± 1.2 | 0.9 ± 0.07 | 0.9 ± 0.07 | 0.9 ± 0.07 | – | 125 ± 9 | 125 ± 11 | 15.6 ± 1.1 | 31.3 ± 2.5 | 0.9 ± 0.07 | 3.9 ± 0.2 | 1.9 ± 0.1 | MBC ([8]; Staphylococcus aureus, MRSA, MRSA-1, read-out: Minimum Bactericidal and Fungicidal Concentration (MBC, MFC), MRSA-1): 15.6 ± 1.2 µg/mL
CCCCCCCCCCCCCCCCCC[P+](C(C)(C)C)(C(C)(C)C)C(C)(C)C [Compound 18b] | – | 31.3 ± 2.2 | 3.9 ± 0.2 | 1.9 ± 0.1 | 1.9 ± 0.1 | – | – | 3.9 ± 0.2 | 3.9 ± 0.3 | 7.8 ± 0.6 | 15.6 ± 1.2 | – | – | 62.5 ± 5.4 | 125 ± 11 | 3.9 ± 0.2 | 15.6 ± 1.2 | 7.8 ± 0.7 | Minimum Inhibitory Concentration (MIC), Ec ([2]; Ec): 15.6 ± 1.3 µg/mL; Minimum Bactericidal and Fungicidal Concentration (MBC, MFC), Pa ([6]; Pa): 31.3 ± 2.5 µg/mL; Minimum Inhibitory Concentration (MIC), Pa ([6]; Pa): 15.6 ± 1.3 µg/mL; Minimum Bactericidal and Fungicidal Concentration (MBC, MFC), Tm [10]: 250 ± 19 µg/mL; Minimum Inhibitory Concentration (MIC), Tm [10]: 250 ± 19 µg/mL
